Reference: US9238644B2, “VEGFR3 inhibitors” (CANCER THERAPEUTICS CRC PTY LIMITED, priority 2012, dated 2016)

How the values were obtained:
VEGFR2 = VEGFR2 (Homo sapiens (Human), UniProt P35968); assay: VEGFR2 Phospho ELISA assay; settings: HUVEC, treated 1 hour, VEGF stimulated; phospho VEGFR2 relative to Total VEGFR2
[1] = target: VEGFR3 cytoplasmic domain (Homo sapiens, UniProt P35916); assay: VEGFR3 Biochemical assay (AlphaScreen); settings: N-terminal GST-fusion enzyme, 500 μM ATP, 90 minutes at 30 degree Celsius (modified form: Hexa-His-fusion, 1 μM ATP)
Sequence of VEGFR3 cytoplasmic domain (P35916 25-1363 limits assumed): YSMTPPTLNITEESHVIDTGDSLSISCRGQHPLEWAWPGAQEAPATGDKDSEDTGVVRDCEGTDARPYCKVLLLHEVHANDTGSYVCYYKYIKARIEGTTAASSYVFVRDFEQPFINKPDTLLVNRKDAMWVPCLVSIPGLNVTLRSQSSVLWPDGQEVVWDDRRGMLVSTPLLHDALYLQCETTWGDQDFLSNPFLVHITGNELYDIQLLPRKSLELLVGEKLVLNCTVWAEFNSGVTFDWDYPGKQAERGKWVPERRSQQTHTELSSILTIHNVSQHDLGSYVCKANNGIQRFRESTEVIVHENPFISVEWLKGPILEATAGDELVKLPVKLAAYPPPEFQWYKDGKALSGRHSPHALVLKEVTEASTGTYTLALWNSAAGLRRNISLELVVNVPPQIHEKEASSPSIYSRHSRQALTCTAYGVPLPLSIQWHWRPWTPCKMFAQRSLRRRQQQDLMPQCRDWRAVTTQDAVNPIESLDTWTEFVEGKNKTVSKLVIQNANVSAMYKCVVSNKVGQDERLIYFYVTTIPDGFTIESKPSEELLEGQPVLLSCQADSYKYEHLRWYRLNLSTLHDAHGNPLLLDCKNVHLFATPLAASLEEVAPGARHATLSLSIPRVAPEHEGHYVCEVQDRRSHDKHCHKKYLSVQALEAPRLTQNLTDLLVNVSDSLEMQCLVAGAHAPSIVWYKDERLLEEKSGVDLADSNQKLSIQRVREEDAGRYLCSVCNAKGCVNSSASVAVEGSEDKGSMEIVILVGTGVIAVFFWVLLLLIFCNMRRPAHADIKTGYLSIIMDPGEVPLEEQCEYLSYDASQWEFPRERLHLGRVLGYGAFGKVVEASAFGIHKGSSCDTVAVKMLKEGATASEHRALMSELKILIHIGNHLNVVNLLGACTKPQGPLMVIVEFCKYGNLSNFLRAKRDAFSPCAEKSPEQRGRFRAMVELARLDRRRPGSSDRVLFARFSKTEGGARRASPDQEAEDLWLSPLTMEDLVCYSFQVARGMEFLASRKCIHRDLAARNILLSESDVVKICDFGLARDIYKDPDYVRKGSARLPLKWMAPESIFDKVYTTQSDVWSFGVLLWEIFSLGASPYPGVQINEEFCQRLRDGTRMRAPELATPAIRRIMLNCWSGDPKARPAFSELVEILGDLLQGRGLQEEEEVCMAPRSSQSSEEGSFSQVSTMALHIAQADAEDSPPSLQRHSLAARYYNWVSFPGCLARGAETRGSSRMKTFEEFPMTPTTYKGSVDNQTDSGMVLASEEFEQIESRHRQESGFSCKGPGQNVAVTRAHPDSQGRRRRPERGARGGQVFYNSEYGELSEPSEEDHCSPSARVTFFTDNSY

VEGFR3 = VEGFR3 (Homo sapiens (Human), UniProt P35916); assay: VEGFR3 Phospho ELISA assay; assay type: cell-based; settings: HMVEC-dLyAD cells, treated 1 hour, VEGFC stimulated; phospho VEGFR3 relative to Total VEGFR3
Sequence of VEGFR3 (P35916 25-1363): as the sequence (P35916 25-1363 limits assumed) above
Procedure: Adult human dermal lymphatic microvascular endothelial cells (HMVEC-dLyAD) (Cat# CC-2810, Lonza) were seeded into clear-bottom, TC treated 12 well plates (Cat #665180, Greiner Bio-One) in EGM-2MV (Cat# CC-3202, Lonza) at 180,000 cells/well (volume 1 mL), and the plates incubated at 37° C. and 5% CO2 for 6 hours.
96 well Maxisorp immuno plates (Cat #439454, Nunc) were coated with 100 μL of Total VEGFR3 capture antibody (Part #841888, Human Total VEGFR3/FLT4 ELISA Kit, Cat # DYC3491, R&D Systems), or Phospho VEGFR3 Capture antibody (Part #841885, Human Phospho VEGFR3/FLT4 ELISA Kit, Cat# DYC2724, R&D Systems). The plates were covered and incubated at room temperature overnight.
The coating antibody was flicked out and the plates washed three times with Wash Buffer (Phosphate buffered saline (137 mM NaCl, 2.7 nM KCl, 8.1 nM Na2HPO4, 1.5 mL KH2PO4, pH 7.2-7.4), 0.05% Tween 20). 300 μL of blocking buffer (5% v/v Tween 20, 5% w/v sucrose in PBS) was then added to wells and plate incubated for 2 hours at room temperature. Blocking solution is flicked out and plates washed three times and tapped dry.
Compound dilution series were prepared in EBM-2 (Cat # CC-3156, Lonza)+0.1% BSA (Cat# A8412, Sigma) with constant 0.1% DMSO concentration. […]
Total VEGFR3 levels were quantified using a Multiskan Ascent plate reader and Ascent software fitted with 450 nm filter. […]

Sequence of VEGFR2 (P35968 20-1356): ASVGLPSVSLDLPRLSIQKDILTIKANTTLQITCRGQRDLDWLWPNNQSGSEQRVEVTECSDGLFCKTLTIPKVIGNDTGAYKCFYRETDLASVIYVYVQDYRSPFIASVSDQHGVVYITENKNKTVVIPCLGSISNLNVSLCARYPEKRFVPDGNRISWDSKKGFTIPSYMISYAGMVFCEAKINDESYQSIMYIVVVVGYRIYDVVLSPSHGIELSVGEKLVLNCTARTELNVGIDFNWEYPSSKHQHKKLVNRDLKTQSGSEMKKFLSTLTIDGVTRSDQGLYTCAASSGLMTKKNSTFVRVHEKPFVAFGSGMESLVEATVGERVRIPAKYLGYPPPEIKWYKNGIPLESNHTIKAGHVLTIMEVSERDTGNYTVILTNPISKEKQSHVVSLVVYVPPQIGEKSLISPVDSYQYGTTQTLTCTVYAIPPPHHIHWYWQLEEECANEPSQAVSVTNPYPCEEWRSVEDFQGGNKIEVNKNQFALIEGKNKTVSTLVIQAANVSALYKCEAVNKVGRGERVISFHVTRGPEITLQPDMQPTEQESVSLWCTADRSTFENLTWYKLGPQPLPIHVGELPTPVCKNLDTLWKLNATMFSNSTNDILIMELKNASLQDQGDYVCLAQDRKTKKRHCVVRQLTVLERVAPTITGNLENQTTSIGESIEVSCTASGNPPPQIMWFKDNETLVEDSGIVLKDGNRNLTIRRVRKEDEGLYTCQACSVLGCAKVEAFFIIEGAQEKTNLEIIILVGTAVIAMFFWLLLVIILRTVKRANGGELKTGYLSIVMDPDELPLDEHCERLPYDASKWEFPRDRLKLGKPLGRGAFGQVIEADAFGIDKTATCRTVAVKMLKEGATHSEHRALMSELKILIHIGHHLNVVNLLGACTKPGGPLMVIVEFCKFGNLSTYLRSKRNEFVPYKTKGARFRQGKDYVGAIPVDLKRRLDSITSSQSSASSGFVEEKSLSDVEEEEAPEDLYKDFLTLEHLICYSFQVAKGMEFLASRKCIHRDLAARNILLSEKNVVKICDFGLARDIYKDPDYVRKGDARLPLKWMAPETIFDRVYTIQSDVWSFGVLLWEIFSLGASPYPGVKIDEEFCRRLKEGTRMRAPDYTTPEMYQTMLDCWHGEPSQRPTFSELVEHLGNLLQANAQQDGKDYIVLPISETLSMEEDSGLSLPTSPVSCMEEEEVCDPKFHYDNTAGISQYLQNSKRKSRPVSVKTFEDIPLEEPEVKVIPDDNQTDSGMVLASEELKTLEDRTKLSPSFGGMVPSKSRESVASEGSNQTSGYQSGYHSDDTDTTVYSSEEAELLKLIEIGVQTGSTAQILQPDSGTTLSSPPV

| Structure (SMILES) | IC50 (VEGFR2) [µM] | IC50 [1] [µM] | IC50 (VEGFR3) [µM] |
| --- | --- | --- | --- |
| CC(C(N)=O)c1ccccc1CCc1nc(Nc2cnn(C3CCNCC3)c2)ncc1C(F)(F)F (racemic) [Compound 56, 2-(2-(2-(2-((1-(piperidin-4-yl)-1H-pyrazol-4-yl)amino)-5-(trifluoromethyl)pyrimidin-4-yl)ethyl)phenyl)propanamide] | 2.22 | – | – |
| NC(=O)C1(c2ccccc2CCc2nc(Nc3ccc(C(F)(F)F)nc3)ncc2C(F)(F)F)CC1 [Compound 10] | – | 0.092 | – |
| CCC(C(N)=O)c1ccccc1CCc1nc(Nc2ccc(C3CCNCC3)cc2)ncc1C(F)(F)F (racemic) [Compound 1, 2-(2-(2-(2-((4-(piperidin-4-yl)phenyl)amino)-5-(trifluoromethyl)pyrimidin-4-yl)ethyl)phenyl)butanamide] | > 10 | 0.091 | 0.173 |
| CC(C(N)=O)c1ccccc1CCc1nc(Nc2cnn(C3CCN(C)CC3)c2)ncc1C(F)(F)F (single isomer, unassigned) [Compound 57-2A, 2-(2-(2-(2-((1-(1-Methylpiperidin-4-yl)-1H-pyrazol-4-yl)amino)-5-(trifluoromethyl)pyrimidin-4-yl)ethyl)phenyl)propanamide] | 0.382 | – | – |
